Experimental data: US10597366B2, “Aryl ethers and uses thereof” (Peloton Therapeutics, Inc., priority 2013, dated 2020)

How the values were obtained:
[1] = test system: VEGFA concentration in medium of 786-O cells; assay: VEGF ELISA Assay; format: cell-based; details: Homo sapiens, 786-0, 786-O cells; read-out: Mean VEGF ELISA EC50
Procedure: Each concentration had duplicated wells. About 20 hours later, medium was removed by suction and each well was supplied with 180 μL of growth medium. About 20 μl freshly-made 10× compound stocks were added to each well. […] The EC50 was calculated by GraphPad Prism using the dose-response-inhibition (four parameter) equation. The cell seeded plate was then subjected to CellTiter-Glo luminescence cell viability assay (Promega) by adding 50 μL of Celltiter Glo reagent into each well and shaking the plate for 8 minutes at 550 rpm (Thermomixer R, Eppendorf) then read luminescence signal in plate reader (3 second delay, 0.5 second/well integration time, Synergy 2 multi Detection Microplate reader) immediately.

[2] = test system: HIF-2α HIS TAG-PASB Domain; assay: HIF-2α Scintillation Proximity Assay (SPA); format: binding; details: compounds listed by structure and IUPAC name
Procedure: The percent inhibition was determined and IC50 values were calculated using the Dotmatics system based on the following equation: % inhibition=[(high control sample)/(high control low control)]×100.

Structure (SMILES) | EC50 [1] | IC50 [2]
CS(=O)(=NC#N)c1ccc(Oc2cc(F)cc(C#N)c2)c2c1[C@H](O)C(F)(F)C2 (stereo partly drawn) [Compound 240] | 81 nM | –
O=C(O)c1cc(S(=O)(=O)C(F)(F)F)ccc1Oc1cc(F)cc(Cl)c1 [2-(3-chloro-5-fluorophenoxy)-5-((trifluoromethyl)sulfonyl)benzoic acid] | – | > 100 µM
O=C(O)c1c(S(=O)(=O)C(F)F)ccc(Oc2cc(F)cc(Cl)c2)c1Br [2-bromo-3-(3-chloro-5-fluoro-phenoxy)-6-(difluoromethylsulfonyl)benzoic acid] | – | > 100 µM
Cc1cc(Oc2cc(F)cc(C#N)c2)c2c(c1S(C)(=O)=O)C(O)CC2 (stereo not drawn) [3-fluoro-5-(1-hydroxy-6-methyl-7-methylsulfonyl-indan-4-yl)oxy-benzonitrile] | – | > 100 µM
CC1Cc2c(Oc3cc(F)cc(C#N)c3)ccc(S(C)(=O)=O)c2C1=O (stereo not drawn) [3-fluoro-5-((2-methyl-7-(methylsulfonyl)-1-oxo-2,3-dihydro-1H-inden-4-yl)oxy)benzonitrile] | – | > 100 µM
CC(=O)NC1c2c(S(C)(=O)=O)ccc(Oc3cc(F)cc(F)c3)c2CC1(F)F (stereo not drawn) [N-[4-(3,5-difluorophenoxy)-2,2-difluoro-7-methylsulfonyl-indan-1-yl]acetamide] | – | > 100 µM
CS(=O)(=O)c1ccc(Oc2cc(C#N)cc(Oc3ccc(S(C)(=O)=O)c4c3CC(F)(F)[C@H]4O)c2)c2c1[C@H](O)C(F)(F)C2 [3,5-bis[[(1S)-2,2-difluoro-1-hydroxy-7-methylsulfonyl-indan-4-yl]oxy]benzonitrile] | – | > 100 µM
Cc1c(Oc2cc(F)cc(C#N)c2)ccc(S(=O)(=O)C(F)(F)F)c1/C=C/C(=O)O [(E)-3-[3-(3-cyano-5-fluoro-phenoxy)-2-methyl-6-(trifluoromethylsulfonyl)phenyl]prop-2-enoic acid] | – | > 100 µM
O=C(O)c1cc(F)cc(Oc2ccc(S(=O)(=O)C(F)(F)F)cc2Br)c1 [3-[2-bromo-4-(trifluoromethylsulfonyl)phenoxy]-5-fluoro-benzoic acid] | – | > 100 µM
Cc1c(Oc2cc(F)cc(C#N)c2)ccc(S(=O)(=O)C(F)(F)F)c1/C=C/C(=O)OCc1ccccc1 [benzyl (E)-3-[3-(3-cyano-5-fluoro-phenoxy)-2-methyl-6-(trifluoromethylsulfonyl)phenyl]prop-2-enoate] | – | > 100 µM
CS(=O)(=O)c1ccc(Oc2cc(F)cc(F)c2)c2c1C(C#N)CC2 (stereo not drawn) [4-(3,5-difluorophenoxy)-7-methylsulfonyl-indane-1-carbonitrile] | – | > 100 µM
Cc1c(Oc2cc(F)cc(C#N)c2)ccc(S(=O)(=O)C(F)(F)F)c1/C=C/C(N)=O [(E)-3-[3-(3-cyano-5-fluoro-phenoxy)-2-methyl-6-(trifluoromethylsulfonyl)phenyl]prop-2-enamide] | – | > 100 µM
O=S(=O)(c1ccc(Oc2cc(F)cc(F)c2)c2c1C(O)CC2)N1CCOCC1 (stereo not drawn) [4-(3,5-difluorophenoxy)-7-morpholinosulfonyl-indan-1-ol] | – | > 100 µM
NC(=O)c1c(S(=O)(=O)C(F)F)ccc(Oc2cc(F)cc(Cl)c2)c1Br [2-bromo-3-(3-chloro-5-fluoro-phenoxy)-6-(difluoromethylsulfonyl)benzamide] | – | > 100 µM
CS(=O)(=O)c1cccc(Oc2ccc(S(=O)(=O)C(F)(F)F)c3c2CC(F)(F)[C@H]3O)c1 [(1S)-2,2-difluoro-4-(3-methylsulfonylphenoxy)-7-(trifluoromethylsulfonyl)indan-1-ol] | – | > 100 µM
O=S(=O)(c1ccc(Oc2cc(F)cc(Cl)c2)c(CC(O)CO)c1)C(F)(F)F (stereo not drawn) [3-[2-(3-chloro-5-fluoro-phenoxy)-5-(trifluoromethylsulfonyl)phenyl]propane-1,2-diol] | – | > 100 µM
CSc1ccc(Oc2cc(F)cc(C#N)c2)c2c1C(=O)CC2 [3-fluoro-5-(7-methylsulfanyl-1-oxo-indan-4-yl)oxy-benzonitrile] | – | > 100 µM
O=C(NO)c1c(S(=O)(=O)C(F)F)ccc(Oc2cc(F)cc(Cl)c2)c1Br [2-bromo-3-(3-chloro-5-fluoro-phenoxy)-6-(difluoromethylsulfonyl)benzenecarbohydroxamic acid] | – | > 100 µM
Cc1cc(S(C)(=O)=O)c2c(c1Oc1cc(F)cc(C#N)c1)CCC2O (stereo not drawn) [3-fluoro-5-(1-hydroxy-5-methyl-7-methylsulfonyl-indan-4-yl)oxy-benzonitrile] | – | > 100 µM
N#Cc1cc(F)cc(Oc2ccc(/S(CF)=N/C(=O)C(F)(F)F)c3c2CC[C@H]3O)c1 (stereo partly drawn) [N-((R)-7-(3-cyano-5-fluorophenoxy)-3-hydroxy-2,3-dihydro-1H-inden-4-yl)(fluoromethyl)-λ^4-sulfanylidene)-2,2,2-trifluoroacetamide] | – | > 100 µM
CCCCOC(=O)/C=C/c1c(S(=O)(=O)C(F)(F)F)ccc(Oc2cc(F)cc(C#N)c2)c1C [butyl (E)-3-[3-(3-cyano-5-fluoro-phenoxy)-2-methyl-6-(trifluoromethylsulfonyl)phenyl]prop-2-enoate] | – | > 100 µM

Structure (SMILES) | EC50 [1] | IC50 [2]
CNC(=O)/C=C/c1c(S(=O)(=O)C(F)(F)F)ccc(Oc2cc(F)cc(C#N)c2)c1C [(E)-3-[3-(3-cyano-5-fluoro-phenoxy)-2-methyl-6-(trifluoromethylsulfonyl)phenyl]-N-methyl-prop-2-enamide] | – | > 100 µM
N#Cc1cccc(Oc2ccc(S(=O)(=O)C(F)F)c3cccnc23)c1 [3-[[5-(difluoromethylsulfonyl)-8-quinolyl]oxy]benzonitrile] | – | > 100 µM
COC(=O)c1cc(F)cc(Oc2ccc(S(=O)(=O)C(F)(F)F)cc2Br)c1 [methyl 3-[2-bromo-4-(trifluoromethylsulfonyl)phenoxy]-5-fluoro-benzoate] | – | > 100 µM
O=C(NCCO)c1c(S(=O)(=O)C(F)F)ccc(Oc2cc(F)cc(Cl)c2)c1C(F)F [3-(3-chloro-5-fluoro-phenoxy)-2-(difluoromethyl)-6-(difluoromethylsulfonyl)-N-(2-hydroxyethyl)benzamide] | – | > 100 µM
Cc1ccccc1Oc1ccc(S(=O)(=O)C(F)(F)F)cc1Br [2-bromo-1-(2-methylphenoxy)-4-(trifluoromethylsulfonyl)benzene] | – | > 100 µM
C[C@H]1Cc2c(Oc3cc(F)cc(C#N)c3)ccc(S(C)(=O)=O)c2[C@H]1O [3-fluoro-5-(((1S,2S)-1-hydroxy-2-methyl-7-(methylsulfonyl)-2,3-dihydro-1H-inden-4-yl)oxy)benzonitrile] | – | > 100 µM
N#Cc1cc(F)cc(Oc2ccc(S(=O)(=O)C(F)(F)F)c3c2C[C@@H](F)[C@@H]3N)c1 [3-[(1R,2R)-1-amino-2-fluoro-7-(trifluoromethylsulfonyl)indan-4-yl]oxy-5-fluoro-benzonitrile] | – | > 100 µM
OC1CCc2c(Oc3cc(F)cc(Cl)c3)cccc21 (stereo not drawn) [4-(3-chloro-5-fluoro-phenoxy)indan-1-ol] | – | > 100 µM
O=S(=O)(c1ccc(Oc2cc(F)cc(Cl)c2)c2c1C1(CC2)OCCO1)C(F)F [4′-(3-chloro-5-fluoro-phenoxy)-7′-(difluoromethylsulfonyl]spiro[1,3-dioxolane-2,1′-indane]] | – | > 100 µM
N#Cc1cccc(Oc2cc(F)cc(Cl)c2)c1Br [2-bromo-3-(3-chloro-5-fluoro-phenoxy)benzonitrile] | – | > 100 µM
CS(=O)(=O)c1ccc(Oc2cc(F)cc(F)c2)c2c1C(NC(=O)c1ccc(F)cc1)C(F)(F)C2 (stereo not drawn) [N-[4-(3,5-difluorophenoxy)-2,2-difluoro-7-methylsulfonyl-indan-1-yl]-4-fluoro-benzamide] | – | > 100 µM
N#Cc1cc(F)cc(Oc2ccc(Cl)c3c2CCC3)c1 [3-(7-chloroindan-4-yl)oxy-5-fluoro-benzonitrile] | – | > 100 µM
CN(C)[S+]([O-])c1ccc(Oc2cc(F)cc(Cl)c2)c(Br)c1 (stereo not drawn) [3-bromo-4-(3-chloro-5-fluoro-phenoxy)-N,N-dimethyl-benzenesulfinamide] | – | > 100 µM
CN(C)Cc1c(S(=O)(=O)C(F)F)ccc(Oc2cc(F)cc(Cl)c2)c1Cl [1-[2-chloro-3-(3-chloro-5-fluoro-phenoxy)-6-(difluoromethylsulfonyl)phenyl]-N,N-dimethyl-methanamine] | – | > 100 µM
N#Cc1cccc(Oc2ccc(C(F)(F)F)c(Cl)c2N)c1 [3-[2-amino-3-chloro-4-(trifluoromethyl)phenoxy]benzonitrile] | – | > 100 µM
O=S(=O)(c1ccc(Oc2cc(F)cc(Cl)c2)c(Cl)c1CNCC1CCOC1)C(F)F (stereo not drawn) [1-[2-chloro-3-(3-chloro-5-fluoro-phenoxy)-6-(difluoromethylsulfonyl)phenyl]-N-(tetrahydrofuran-3-ylmethyl)methanamine] | – | > 100 µM
N=S(=O)(c1ccc(Cl)c(Br)c1Oc1cc(F)cc(Cl)c1)C(F)(F)F (stereo not drawn) [[3-bromo-4-chloro-2-(3-chloro-5-fluoro-phenoxy)phenyl]-imino-oxo-(trifluoromethyl)-λ^6-sulfane] | – | > 100 µM
CC(=O)c1ccc(Oc2cc(F)cc(Cl)c2)c(Br)c1C#N [6-acetyl-2-bromo-3-(3-chloro-5-fluoro-phenoxy)benzonitrile] | – | > 100 µM
O=[N+]([O-])c1c(F)cccc1Oc1cccc(Cl)c1 [1-(3-chlorophenoxy)-3-fluoro-2-nitro-benzene] | – | > 100 µM
O=S(=O)(c1ccc(Oc2cc(F)cc(Cl)c2)c(Cl)c1CNC1CCOC1)C(F)F (stereo not drawn) [N-[[2-chloro-3-(3-chloro-5-fluoro-phenoxy)-6-(difluoromethylsulfonyl)phenyl]methyl]tetra-hydrofuran-3-amine] | – | > 100 µM
CNc1c(S(=O)(=O)C(F)(F)F)ccc(Oc2cc(F)cc(Cl)c2)c1C#N [6-(3-chloro-5-fluoro-phenoxy)-2-(methylamino)-3-(trifluoromethylsulfonyl)benzonitrile] | – | > 100 µM
